Laboratory results: patent US8426587B2, “Haloallylamine inhibitors of SSAO/VAP-1 and uses therefor” (Pharmaxis Ltd., priority 2007, dated 2013)
Structures can show the parent of a compound that is named as a salt.

Key:
Mouse SSAO/VAP-1 = molecular target: T1, Mouse SSAO/VAP-1 (Mus musculus, UniProt O70423); assay: Inhibition of amine oxidase activity of mouse SSAO/VAP-1 (3T3-L1 adipocytes, Amplex Red); type: biochemical; details: 3T3-L1 adipocyte SSAO, 40 μM benzylamine
T1 construct: Adipocytes were used as an SSAO source either as adherent cells or as a homogenate; endogenous in cells; host or cells: 3T3-L1 murine fibroblasts (ATCC) differentiated into adipocytes
T1 sequence (O70423 1-765): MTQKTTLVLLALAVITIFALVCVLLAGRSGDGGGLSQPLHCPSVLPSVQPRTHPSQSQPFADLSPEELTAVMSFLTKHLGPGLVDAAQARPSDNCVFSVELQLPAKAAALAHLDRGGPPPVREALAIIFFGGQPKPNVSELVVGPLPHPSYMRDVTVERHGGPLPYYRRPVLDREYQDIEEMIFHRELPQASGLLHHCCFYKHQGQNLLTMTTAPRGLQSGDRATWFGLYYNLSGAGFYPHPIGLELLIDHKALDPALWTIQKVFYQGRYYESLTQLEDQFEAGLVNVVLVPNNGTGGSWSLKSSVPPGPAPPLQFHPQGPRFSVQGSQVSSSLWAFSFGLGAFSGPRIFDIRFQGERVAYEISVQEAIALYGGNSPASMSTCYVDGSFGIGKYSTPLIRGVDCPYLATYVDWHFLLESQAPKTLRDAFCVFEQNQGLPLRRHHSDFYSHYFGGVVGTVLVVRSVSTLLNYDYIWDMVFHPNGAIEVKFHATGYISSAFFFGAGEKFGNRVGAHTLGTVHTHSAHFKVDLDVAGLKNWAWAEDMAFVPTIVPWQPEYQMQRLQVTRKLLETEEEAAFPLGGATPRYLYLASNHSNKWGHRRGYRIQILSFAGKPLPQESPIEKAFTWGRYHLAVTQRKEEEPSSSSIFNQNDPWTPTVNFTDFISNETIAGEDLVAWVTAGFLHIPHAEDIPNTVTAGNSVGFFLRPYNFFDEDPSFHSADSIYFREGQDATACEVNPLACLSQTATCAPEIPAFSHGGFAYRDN
Description: 3T3-L1 Murine fibroblasts were purchased from the American Type Culture Collection (ATCC, Rockville, Md.). Dulbecco's Modified Eagle Medium (DMEM) and fetal calf serum (FCS), antibiotics and Amplex® Red were obtained from Invitrogen (Carlsbad, Calif.). Tissue culture plastics and black clear-bottom 96 well plates were from BD Falcon (Bedford, Mass.). Bicinchoninic acid (BCA) reagent was from Pierce (Rockford, Ill.). All other materials were obtained from Sigma (St. Louis, Mo.).
3T3-L1 Fibroblasts were cultured in DMEM supplemented with 10% heat-inactivated FCS, 2 mM L-glutamine, 100 U/L penicillin and 100 μg/L streptomycin at 37° C. in 5% CO2. For differentiation into adipocytes, fibroblasts were cultured in DMEM with FCS for 1 or 2 days postconfluence, after which the cells were cultured for 3 days in DMEM containing 10% FCS, 350 nM insulin, 0.5 mM 3-isobutyl-1-methylxanthine, 250 nM dexamethasone, and 400 nM biotin and for 3 days in DMEM containing 10% FCS and 350 nM insulin. After differentiation, adipocytes were maintained in DMEM supplemented with 10% FCS. Adipocytes were used for experiments 8 to 11 days after the onset of differentiation, and the medium was renewed 2 or 3 days prior to each experiment. For culturing in black clear-bottom 96-well plates, cells were seeded at a 1:1 cell surface ratio, and differentiation was initiated 4 days postseeding. Cells were used between days 6-12 post-differentiation and between passages 7 and 20. Adipocytes were used as an SSAO source either as adherent cells or as a homogenate.
To prepare homogenate, 10 cm dishes of adipocytes were washed with HES buffer (20 mM HEPES, 1 mM EDTA, 250 mM sucrose, pH 7.4) and scraped in HES buffer containing 10 μg/mL leupeptin, 10 μM pepstatin and 1 mM PMSF. Cells were lysed by passage through a 23 G needle followed by passage through a 27 G needle. The lysate was spun at 500 g for 5 min and fat was removed. Protein concentration of the supernatant was measured using a BCA assay according to the manufacturer's instructions. The homogenate was stored at −80° C. until needed.
To measure the SSAO activity, adipocyte homogenate (0.5 mg/mL) or adipocytes (adhering cells) containing 0.5 mM pargyline, or purified human SSAO was incubated in 0.1 M sodium phosphate buffer pH 7.4 with varying concentrations of test compounds for 30 min at 37° C. The homogenate was then incubated at 37° C. with 60 μM Amplex® Red, 0.75 U/mL HRP and 40 μM benzylamine (mouse SSAO) or 300 μM benzylamine (human SSAO) and the formation of resorufin was measured (excitation range 530-560 nm and emission at 590 nm) every 10 min in either a Tecan Infinite 200 or a BMG plate reader. The IC50 values were estimated using Graphpad Prism software. The IC50 is an estimation of the concentration of the test compound to inhibit the amine oxidase activity of SSAO/VAP-1 by 50%. The IC50 values of certain invention compounds are included in Table 1.

Human MAO-B = molecular target: T2, Human MAO-B (Homo sapiens, UniProt P27338); assay: Inhibition of recombinant MAO-B (Amplex Red); type: biochemical; details: 50 μM benzylamine
T2 sequence (P27338 1-520): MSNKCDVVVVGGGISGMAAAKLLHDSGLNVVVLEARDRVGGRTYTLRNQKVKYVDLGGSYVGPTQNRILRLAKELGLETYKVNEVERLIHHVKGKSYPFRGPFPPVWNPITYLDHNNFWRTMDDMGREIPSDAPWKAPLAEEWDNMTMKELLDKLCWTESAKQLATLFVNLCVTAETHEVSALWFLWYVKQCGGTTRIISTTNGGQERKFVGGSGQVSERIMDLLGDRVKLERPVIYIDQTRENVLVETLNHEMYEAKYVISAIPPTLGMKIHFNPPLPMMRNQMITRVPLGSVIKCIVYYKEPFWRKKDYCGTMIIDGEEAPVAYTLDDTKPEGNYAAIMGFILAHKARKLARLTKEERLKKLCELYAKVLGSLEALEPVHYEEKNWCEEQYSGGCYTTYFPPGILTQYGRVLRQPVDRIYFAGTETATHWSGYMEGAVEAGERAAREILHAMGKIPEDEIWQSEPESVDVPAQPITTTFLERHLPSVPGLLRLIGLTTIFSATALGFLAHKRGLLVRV
Protocol: Recombinant MAO-B was incubated in 0.1 M sodium phosphate buffer pH 7.4 with varying concentration of test compounds for 30 min at 37° C. The homogenate/protein was then incubated at 37° C. with […] Amplex® Red, 0.75 U/ml HRP and 40 μM benzylamine (mouse SSAO), 300 μM benzylamine (human SSAO), 100 μM tyramine (MAO-A) or 50 μM benzylamine (MAO-B) and the formation of resorufin was measured (excitation range 530-560 nm and emission at 590 nm) every 5 min in either a Tecan Infinite 200 or a BMG Fluorostar Optima platereader. IC50 were estimated using Graphpad Prism software.

## C[C@H](NS(=O)(=O)c1ccc(OC/C(F)=C\CN)cc1)c1ccccc1.Cl [(S,E)-4-(4-Amino-2-fluorobut-2-enyloxy)-N-(1-phenylethyl)benzenesulfonamide]
Mouse SSAO/VAP-1; 30 min at 37° C. preincubation
  IC50: < 1 µM
Human MAO-B; 30 min at 37° C. preincubation
  IC50: < 1 µM

## Cc1nc2cc(OC/C(F)=C\CN)ccc2s1.Cl [(E)-3-Fluoro-4-(2-methylbenzo[d]thiazol-5-yloxy)but-2-en-1-amine hydrochloride]
Mouse SSAO/VAP-1; 30 min at 37° C. preincubation
  IC50: < 1 µM
Human MAO-B; 30 min at 37° C. preincubation
  IC50: < 100 µM

## NC/C=C(/F)COc1ccc(C(=O)NC2CCCCC2)cc1 [(E)-4-(4-amino-2-fluorobut-2-enyloxy)-N-cyclohexylbenzamide hydrochloride]
Mouse SSAO/VAP-1; 30 min at 37° C. preincubation
  IC50: < 1 µM
Human MAO-B; 30 min at 37° C. preincubation
  IC50: < 1 µM

## CS(=O)(=O)c1ccc(OC/C(F)=C\CN)cc1.Cl [(E)-3-Fluoro-4-(4-(methylsulfonyl)phenoxy)but-2-en-1-amine hydrochloride]
Mouse SSAO/VAP-1; 30 min at 37° C. preincubation
  IC50: < 1 µM
Human MAO-B; 30 min at 37° C. preincubation
  IC50: < 100 µM

## NC/C(=C/F)CCc1ccc(F)cc1 [Mofegiline, reference compound]
Mouse SSAO/VAP-1
  IC50: 0.001 µM
Human MAO-B
  IC50: 0.004 µM
